# Entries after “also recorded” stand apart in the source; their conditions may differ. Like-named read-outs stand apart in the source and are kept apart here.
# Experiments:
# [1] = test system: BE(2)C cells; assay: Antiproliferative effect of [PEG-SN38-BG]8 on BE(2)C with/without vorinostat or entinostat; format: cell-based, human; details: 6 hr exposure, 25-100 nM SN-38 equivalent, vorinostat 1.25-5.0 μM, 6 days post treatment
# Procedure: Cell growth was measured by bioluminescence. BE(2)C cell survival data at 6 days post treatment were analyzed for hyperadditivity by applying a model z=z0+A·x+B·y+C·[x·y] and determining the significance of the interaction term C.
# The effect on cell growth kinetics was studied in comparison to free SN-38 or bipartite [PEG-SN38]8 lacking functionalization with BG (A). Cells were exposed for 4 hr to equivalent concentrations of the compounds, corresponding to 125 nM of SN-38. In an additional experiment (B), the response to treatment with [PEG-SN38-BG]8 was examined with/without a HDAC1-specific inhibitor, entinostat (0-5 μM). The doses of the prodrug were varied within a range equivalent to 0-100 nM SN-38, and the exposure duration was fixed at 6 hr. Cell growth was monitored by bioluminescence. The response is shown as % cell survival (mean±SD) at 6 days post-treatment. Experimental data were analyzed for hyperadditivity using a model z=z0+A·x+B·y+C·[x·y] and determining the significance of the interaction term C.
# To evaluate the specific contribution of the targeting ligand incorporated in the prodrug structure, the cell growth inhibitory activity of [PEG-SN38-BG]8 on NET-expressing, chemoresistant NB cells was compared to that of a control molecule, [PEG-SN38]8, constructed analogously but without the BG moiety.
# [2] = test system: BE(2)C cells; details: derived at relapse; cited from earlier work
# [3] = test system: BE(2)C cells; assay: Antiproliferative effect of PF68-SN38-BG vs PF68-SN38 and SN-38 on BE(2)C, 15-min exposure; format: cell-based, human; details: SN-38 equivalent dose 0-25 nM
# From the text: Blank Pluronic F-68 had no effect on cell growth.
# [4] = test system: NLF and ABCG2-expressing clones; assay: Growth of NLF and ABCG2-expressing clones in presence of SN38 or SN22 (IncuCyte); format: cell-based, human
# Procedure: FIG. 7: ABCG2 expression and growth of NLF and transfected clones. (A) Western analysis was performed on NLF and three single-cell clones with an ABCG2 antibody (Santa Cruz), compared to an actin control. Clones 1, 2 and 3 had trace, low and, intermediate levels of ABCG2 expression, respectively. (B) Growth of NLF and ABCG2-expressing clones in the presence of SN38 or SN22 (50 ng/ml). Growth shown at day 4.
# To evaluate susceptibility of SN38 and SN22 to ABCG2 efflux, an ABCG2-null NB cell line, NLF, was identified. NLF was transfected with an ABCG2 expression vector, and then selected single-cell clones with trace, low, and intermediate levels of ABCG2 expression (FIG. 7A). Next, the sensitivity of NLF and ABCG2-expressing clones to different concentrations of SN38 or SN22 and monitored growth continuously using IncuCyte® S3 Live-Cell Analysis System was assessed.
# [5] = test system: BE(1) cells; details: derived at diagnosis; cited from earlier work
# [6] = test system: orthotopic BE(2)C xenograft tumors; assay: Therapeutic efficacy of NET-directed Pluronic F-108 tripartite prodrug in refractory NB model; format: in vivo, mice; details: 4 weeks 2x/week; constructs 10 mg SN-38 per kg, irinotecan 15 mg/kg
# From the text: FIG. 21: Therapeutic efficacy of NET-directed delivery in a model of refractory NB. Mice were inoculated in the suprarenal fat pad with 10^6 luciferase-expressing BE(2)C cells. […] Alternatively, tumors were allowed to reach 2 cm^3 before starting therapy (B). Disease progression was monitored by quantitative bioluminescence. Tumor growth data are shown as mean±SD.
# [7] = test system: disseminated BE(2)C tumor deposits; assay: Therapeutic efficacy of [PEG-SN38-BG]8 in model of metastatic, refractory NB; format: in vivo, mice; details: from day 25, 4 weeks 2x/week; prodrug 10 mg SN-38 per kg, irinotecan 15 mg/kg
# Procedure: Mice were injected through the tail vein with 10^6 luciferase-expressing BE(2)C cells. […] Tumor-associated signal was monitored by quantitative bioluminescence ((A), data shown as mean±SD). Representative images are included in (B).
# [8] = test system: orthotopic IMR-32 xenografts; assay: Therapeutic efficacy of PF108-(SN22)2 in orthotopic IMR-32 xenograft model; format: in vivo, mice; details: PF108-(SN22)2 once a week; irinotecan 2x a week; 10 mg drug per kg
# From the text: Mice were inoculated with 10^6 luciferase-expressing IMR-32 cells. […] Tumor-associated signal was monitored by quantitative bioluminescence. Quantitative data are shown as mean±SD.
# [9] = test system: orthotopic BE(2)C xenografts; assay: Therapeutic efficacy of [PEG-SN38-BG]8 in orthotopic model of refractory NB; format: in vivo, mice
# Procedure: FIG. 12: Therapeutic efficacy of [PEG-SN38-BG]8 in an orthotopic model of refractory, high-risk NB. Athymic nude (nu/nu) mice were inoculated with BE(2)C cells (10^6) stably expressing luciferase. Treatment with [PEG-SN38-BG]8 was administered intravenously at a dose equivalent to 10 mg/kg of SN-38 twice a week for 4 weeks. […] A group of mice administered with saline (no treatment) was used as a negative control. In an additional group, the prodrug was administered using the same regimen to animals allowed to reach a 10-fold larger tumor size (2.0 cm^3, ‘large tumors’). Tumor-associated signal was monitored by quantitative bioluminescence. Data presented graphically in (A) are expressed as mean±SD. The survival curves for respective animal groups over a 190-day period are shown in (B).
# FIG. 16: Therapeutic efficacy of [PEG-SN38-BG]8 in an orthotopic model of refractory, high-risk NB. Athymic nude (nu/nu) mice were inoculated with BE(2)C cells (10^6) stably expressing luciferase. Treatment with [PEG-SN38-BG]8 was administered intravenously at a dose equivalent to 10 mg/kg of SN-38 twice a week for 4 weeks. […] Groups of mice administered either with blank PEG or saline (no treatment) were used as negative controls (A). […] Tumor-associated signal was monitored by quantitative bioluminescence. Data are presented as mean±SD.
# [10] = test system: spontaneous NB tumors, TH-MYCN transgenic mouse; assay: TH-MYCN transgenic mouse model of de novo NB; format: in vivo, mice; details: once a week x4 weeks; PEG-[SN22]4 10 mg/kg/dose, CPT-11 15 mg/kg/dose
# Procedure: Mice were treated with saline (N=8), CPT-11 (15 mg/kg/dose; N=7), PEG-[SN38]4 (10 mg/kg/dose; N=6) or PEG-[SN22]4 (10 mg/kg/dose; N=6) IV by tail vein once a week×4 weeks. Treatments started when the mice were about 5 weeks old with a tumor size about 1-2 cm^3.
# PEG-[SN22]4 was also used to treat de novo NBs in a TH-MYCN transgenic mouse model. Spontaneous tumors develop in paraspinal ganglia or in the adrenal gland by 4-5 weeks in almost all mice with two copies of the transgene. Mice were divided into 4 groups once tumors became palpable (4-5 weeks): control-no treatment; CPT-11 treatment (15 mg/kg/dose), PEG-[SN38]4 (10 mg/kg/dose), or PEG-[SN22]4 (10 mg/kg/dose). Mice were treated once a week for 4 weeks. […] Mice were sacrificed when they became symptomatic from tumor burden.
# Mice. Six-week-old Foxn1^nu/Foxn1^nu (JAX stock #007850) mice from Jackson Laboratories are used. Mice are maintained under humidity- and temperature-controlled conditions in a light/dark cycle that is set at 12-hour intervals. These mice are in a 129-SvJ background. Mice homozygous for the transgene generally develop tumors within 4-5 weeks.
# [11] = test system: orthotopic IMR-32 xenografts; assay: Therapeutic efficacy of [PEG-SN38-BG]8 in orthotopic IMR-32 xenograft model; format: in vivo, mice; details: doses equivalent to 10 mg SN-38 per kg, 2x week over 4 weeks, from day 21
# From the text: (§1) FIG. 15: Therapeutic efficacy of [PEG-SN38-BG]8 in an orthotopic xenograft model of chemo-naïve, MYCN-amplified NB. Mice were inoculated with 10^6 luciferase-expressing IMR-32 cells. […] Tumor-associated signal was monitored by quantitative bioluminescence. Data in (A) are shown as mean±SD. Representative bioluminescent images for each group are included in (B).
# as §1, with “17:” for “15:”, “Representative” for “Representative bioluminescent”, “images” for “images for each group”
# The effectiveness of the tripartite prodrug strategy in providing sustained anticancer effects against aggressive NB tumors was shown experimentally in an orthotopic IMR-32 xenograft model (FIG. 15).
# [12] = test system: orthotopic BE(2)C xenografts; format: in vivo; details: PF108-(SN22)2 10 mg/kg SN22 IV once a week x4; irinotecan 10 mg/kg SN38 twice a week
# From the text: Saline or chemically unmodified Pluronic F-108 were used as negative controls.
# [13] = test system: SKNBE(2)C orthotopic xenograft; assay: NB orthotopic xenograft model with chemo-resistant SKNBE(2)C; format: in vivo, mice; details: once a week x4 weeks; prodrugs 10 mg/kg/dose, CPT-11 15 mg/kg/dose
# Procedure: Chemoresistant, luciferase transfected, SKNBE(2)C cells (107) were injected in the perineal fat pad of nude mice. Mice were divided into five groups: no treatment, or treatment with blank PEG, CPT-11, PEG-[SN38]4 or PEG-[SN22]4 (10 animals per group). Treatment started when tumors reached about 0.2 cm^3.
# Mice were divided into five groups: no treatment, or treatment with blank PEG, CPT-11, PEG-[SN22]4 or PEG-[SN38]4 (10 animals per group). Treatment started when tumors reached about 0.2 cm^3.
# Next, PEG-[SN22]4, PEG-[SN38]4 and CPT-11 in a NB orthotopic xenograft mouse model with the chemo-resistant NB line SKNBE(2)C. BE(2)C cells were transfected with a luciferase expression vector to allow for bioluminescent imaging. Mice were treated once a week for 4 weeks with either PEG-[SN22]4 (10 mg/kg/dose), PEG-[SN38]4 (10 mg/kg/dose) or CPT-11 (15 mg/kg/dose).
# BE(2)C cells were transfected with a luciferase expression vector to allow for bioluminescent imaging. Mice were treated once a week for four weeks with either PEG-[SN22]4 (10 mg/kg/dose), PEG-[SN38]4 (10 mg/kg/dose) or CPT-11 (15 mg/kg/dose).
# [14] = test system: BE(2)C cells; details: free SN22 with or without unmodified Pluronic F-108
compound,measurement,setting,value
"CCc1c2c(nc3ccc(O)cc13)-c1cc3c(c(=O)n1C2)COC(=O)[C@]3(O)CC [SN38, 7-ethyl-10-hydroxy-camptothecin]",potentiation of antiproliferative effect by vorinostat,[1],moderately synergized
same,concentration required for cell growth inhibition by 90% (therapeutic threshold),[2],25 ng/mL
same,BE(2)C cell growth inhibition,[3],marginally inhibited
same,sensitivity of clones with higher ABCG2 levels,[4],increasingly resistant
same,concentration required for cell growth inhibition by 90%,[5],2 ng/mL
CCc1c2c(nc3ccc(OC(=O)N4CCC(N5CCCCC5)CC4)cc13)-c1cc3c(c(=O)n1C2)COC(=O)[C@]3(O)CC [irinotecan],tumor growth (bioluminescence),[6],marginal effect
same,disease progression (bioluminescence),[7],no significant effect on the disease progression
same,tumor response (bioluminescence),[8],only a transient response
same,"tumor growth (bioluminescence), FIG. 16A","[9]; 2x/week over 4 weeks, prodrugs 10 mg/kg SN-38, irinotecan 15 mg/kg",no antitumor effect
same,"tumor growth (bioluminescence), FIG. 12","[9]; [PEG-SN38-BG]8 10 mg/kg SN-38 IV twice a week x4 weeks, irinotecan 15 mg/kg twice a week",marginal therapeutic effect and survival extension
same,t50% survival (event-free),"[9]; small tumors, twice a week x4 weeks",20 days
same,tumor response,[10],only slightly delayed
same,tumor response (bioluminescence),[11],tumors starting to regrow immediately after treatment cessation; also recorded: able to inhibit tumor growth for the duration of treatment
same,tumor growth (bioluminescence),[12],marginal antitumor effect
same,tumor response during treatment,[13],had no effect; also recorded: had very little effect; also recorded: only slightly delayed
"CCc1c2c(nc3ccccc13)-c1cc3c(c(=O)n1C2)COC(=O)[C@]3(O)CC [SN22, 7-ethyl-camptothecin]",sensitivity of clones with higher ABCG2 levels,"[4]; NLF clones with trace, low, intermediate ABCG2, 50 ng/ml, day 4",remained fully sensitive
same,responsiveness of BE(2)C cells vs IMR-32,[14],strongly shifted in comparison to IMR-32 toward higher doses and longer exposure durations

# Source: patent US12311028B2, “Polymer-based macromolecular prodrugs” (The Children's Hospital of Philadelphia, priority 2018, dated 2025)
